How the values were obtained:
Format in all cases: in vivo
[1] = test system: Diabrotica balteata; assay: Diabrotica balteata (corn root worm), sprayed maize sprouts; details: 96 h, application rate 200 ppm, L2 larvae, 4 days after infestation, read-out: effect in at least one of the two categories (mortality or growth inhibition)
Protocol: Maize sprouts placed onto an agar layer in 24-well microtiter plates were treated with aqueous test solutions prepared from 10'000 ppm DMSO stock solutions by spraying. After drying, the plates were infested with L2 larvae (6 to 10 per well). The samples were assessed for mortality and growth inhibition in comparison to untreated samples 4 days after infestation.
(§1) The following compounds gave an effect of at least 80% in at least one of the two categories (mortality or growth inhibition) at an application rate of 200 ppm: […]

[2] = test system: Euschistus heros; assay: Euschistus heros (neotropical brown stink bug), sprayed soybean leaves; details: 120 h, application rate 200 ppm, N2 nymphs, 5 days after infestation, read-out: effect in at least one of the two categories (mortality or growth inhibition)
Protocol: Soybean leaves on agar in 24-well microtiter plates were sprayed with aqueous test solutions prepared from 10'000 ppm DMSO stock solutions. After drying the leaves were infested with N2 nymphs. The samples were assessed for mortality and growth inhibition in comparison to untreated samples 5 days after infestation.
as §1

[3] = test system: Plutella xylostella; assay: Plutella xylostella (diamond back moth), artificial diet; details: 120 h, application rate 200 ppm, L2 larvae, 5 days after infestation, read-out: effect in at least one of the two categories (mortality or growth inhibition)
Protocol: 24-well microtiter plates with artificial diet were treated with aqueous test solutions prepared from 10'000 ppm DMSO stock solutions by pipetting. After drying, the plates were infested with L2 larvae (10 to 15 per well). The samples were assessed for mortality and growth inhibition in comparison to untreated samples 5 days after infestation.
as §1

[4] = test system: Spodoptera littoralis; assay: Spodoptera littoralis (Egyptian cotton leaf worm), sprayed cotton leaf discs; details: foliar, 72 h, application rate 200 ppm, L1 larvae, 3 days after infestation, read-out: control (mortality, anti-feeding effect, growth inhibition)
Protocol: Cotton leaf discs were placed onto agar in 24-well microtiter plates and sprayed with aqueous test solutions prepared from 10'000 ppm DMSO stock solutions. After drying the leaf discs were infested with five L1 larvae. The samples were assessed for mortality, anti-feeding effect, and growth inhibition in comparison to untreated samples 3 days after infestation. Control of Spodoptera littoralis by a test sample is given when at least one of the categories mortality, anti-feedant effect, and growth inhibition is higher than the untreated sample.

[5] = test system: Tetranychus urticae; assay: Tetranychus urticae (two-spotted spider mite): feeding/contact activity; details: 192 h, application rate 200 ppm, mixed population (mobile stages), 8 days after infestation, read-out: mortality
Protocol: Bean leaf discs on agar in 24-well microtiter plates were sprayed with aqueous test solutions prepared from 10'000 ppm DMSO stock solutions. After drying the leaf discs were infested with a mite population of mixed ages. The samples were assessed for mortality on mixed population (mobile stages) 8 days after infestation.

[6] = test system: Thrips tabaci; assay: Thrips tabaci (onion thrips): feeding/contact activity; details: 144 h, application rate 200 ppm, Thrips population of mixed ages, 6 days after infestation, read-out: mortality
Protocol: Sunflower leaf discs were placed on agar in 24-well microtiter plates and sprayed with aqueous test solutions prepared from 10'000 ppm DMSO stock solutions. After drying the leaf discs were infested with a Thrips population of mixed ages. The samples were assessed for mortality 6 days after infestation.

C=CCN(C(=O)OC(C)(C)C)S(=O)(=O)N1CC(NC(=O)c2ccc(C3=NO[C@@](c4cc(Cl)c(F)c(Cl)c4)(C(F)(F)F)C3)cc2C)CO1 (stereo partly drawn) [Compound A94, tert-butyl N-allyl-N-[4-[[4-[(5S)-5-(3,5-dichloro-4-fluoro-phenyl)-5-(trifluoromethyl)-4H-isoxazol-3-yl]-2-methyl-benzoyl]amino]isoxazolidin-2-yl]sulfonyl-carbamate]
≥ 80%: percent effect (mortality or growth inhibition) at 200 ppm [1] | percent effect (mortality or growth inhibition) at 200 ppm [2] | percent effect (mortality or growth inhibition) at 200 ppm [3] | mortality at 200 ppm [4] | mortality at 200 ppm [5] | mortality at 200 ppm [6]

COC(=O)CS(=O)(=O)N1C[C@H](NC(=O)c2ccc(C3=NO[C@@](c4cc(Cl)c(F)c(Cl)c4)(C(F)(F)F)C3)cc2C)CO1 [Compound A190, methyl 2-[[(4S)-4-[[4-[(5S)-5-(3,5-dichloro-4-fluorophenyl)-5-(trifluoromethyl)-4H-1,2-oxazol-3-yl]-2-methylbenzoyl]amino]-1,2-oxazolidin-2-yl]sulfonyl]acetate]
≥ 80%: percent effect (mortality or growth inhibition) at 200 ppm [1] | percent effect (mortality or growth inhibition) at 200 ppm [2] | percent effect (mortality or growth inhibition) at 200 ppm [3] | mortality at 200 ppm [4] | mortality at 200 ppm [5] | mortality at 200 ppm [6]

Cc1cc(C2=NO[C@](c3cc(Cl)c(F)c(Cl)c3)(C(F)(F)F)C2)ccc1C(=O)N[C@H]1CON(S(=O)(=O)CCC(F)(F)F)C1 [Compound A199, 4-[(5R)-5-(3,5-dichloro-4-fluorophenyl)-5-(trifluoromethyl)-4H-1,2-oxazol-3-yl]-2-methyl-N-[(4R)-2-(3,3,3-trifluoropropylsulfonyl)-1,2-oxazolidin-4-yl]benzamide]
≥ 80%: percent effect (mortality or growth inhibition) at 200 ppm [1] | percent effect (mortality or growth inhibition) at 200 ppm [2] | percent effect (mortality or growth inhibition) at 200 ppm [3] | mortality at 200 ppm [4] | mortality at 200 ppm [5] | mortality at 200 ppm [6]

CS(=O)(=O)N1CC(NC(=O)c2ccc(C3=NOC(c4cc(Cl)cc(Cl)c4)(C(F)(F)F)C3)cc2C(F)(F)F)CO1 (stereo not drawn) [Compound A58]
≥ 80%: percent effect (mortality or growth inhibition) at 200 ppm [1] | percent effect (mortality or growth inhibition) at 200 ppm [2] | percent effect (mortality or growth inhibition) at 200 ppm [3] | mortality at 200 ppm [4] | mortality at 200 ppm [5] | mortality at 200 ppm [6]

CS(=O)(=O)N1CC(NC(=O)c2ccc(C3=NOC(c4cc(Cl)cc(Cl)c4)(C(F)(F)F)C3)c3ccccc23)CO1 (stereo not drawn) [Compound A46]
≥ 80%: percent effect (mortality or growth inhibition) at 200 ppm [1] | percent effect (mortality or growth inhibition) at 200 ppm [2] | percent effect (mortality or growth inhibition) at 200 ppm [3] | mortality at 200 ppm [4] | mortality at 200 ppm [5] | mortality at 200 ppm [6]

Cc1cc(C2=NO[C@@](c3cc(Cl)c(F)c(Cl)c3)(C(F)(F)F)C2)ccc1C(=O)NC1CON(S(=O)(=O)NS(C)(=O)=O)C1 (stereo partly drawn) [Compound A102, 4-[(5S)-5-(3,5-dichloro-4-fluoro-phenyl)-5-(trifluoromethyl)-4H-isoxazol-3-yl]-2-methyl-N-[2-(methylsulfonylsulfamoyl)isoxazolidin-4-yl]benzamide]
≥ 80%: percent effect (mortality or growth inhibition) at 200 ppm [1] | percent effect (mortality or growth inhibition) at 200 ppm [2] | percent effect (mortality or growth inhibition) at 200 ppm [3] | mortality at 200 ppm [4] | mortality at 200 ppm [5] | mortality at 200 ppm [6]

CN(C)S(=O)(=O)N1C[C@@H](NC(=O)c2ccc(C3=NO[C@@](c4cc(Cl)cc(Cl)c4)(C(F)(F)F)C3)cc2Cl)CO1 [Compound A110, 2-chloro-4-[(5S)-5-(3,5-dichlorophenyl)-5-(trifluoromethyl)-4H-isoxazol-3-yl]-N-[(4R)-2-(dimethylsulfamoyl)isoxazolidin-4-yl]benzamide]
≥ 80%: percent effect (mortality or growth inhibition) at 200 ppm [1] | percent effect (mortality or growth inhibition) at 200 ppm [2] | percent effect (mortality or growth inhibition) at 200 ppm [3] | mortality at 200 ppm [4] | mortality at 200 ppm [5] | mortality at 200 ppm [6]

COC(=O)CN(C)S(=O)(=O)N1CC(NC(=O)c2ccc(C3=NO[C@@](c4cc(Cl)c(Cl)c(Cl)c4)(C(F)(F)F)C3)cc2C)CO1 (stereo partly drawn) [Compound A88, methyl 2-[methyl-[4-[[2-methyl-4-[(5S)-5-(3,4,5-trichlorophenyl)-5-(trifluoromethyl)-4H-isoxazol-3-yl]benzoyl]amino]isoxazolidin-2-yl]sulfonyl-amino]acetate]
≥ 80%: percent effect (mortality or growth inhibition) at 200 ppm [1] | percent effect (mortality or growth inhibition) at 200 ppm [2] | percent effect (mortality or growth inhibition) at 200 ppm [3] | mortality at 200 ppm [4] | mortality at 200 ppm [5] | mortality at 200 ppm [6]

COC(=O)CS(=O)(=O)N1C[C@@H](NC(=O)c2ccc(C3=NO[C@](c4cc(Cl)cc(Cl)c4)(C(F)(F)F)C3)cc2C)CO1 [Compound A176, methyl 2-[[(4R)-4-[[4-[(5R)-5-(3,5-dichlorophenyl)-5-(trifluoromethyl)-4H-1,2-oxazol-3-yl]-2-methylbenzoyl]amino]-1,2-oxazolidin-2-yl]sulfonyl]acetate]
≥ 80%: percent effect (mortality or growth inhibition) at 200 ppm [1] | percent effect (mortality or growth inhibition) at 200 ppm [2] | percent effect (mortality or growth inhibition) at 200 ppm [3] | mortality at 200 ppm [4] | mortality at 200 ppm [5] | mortality at 200 ppm [6]

Cc1cc(C2=NO[C@@](c3cc(Cl)cc(Cl)c3)(C(F)(F)F)C2)ccc1C(=O)N[C@@H]1CON(S(=O)(=O)CC(F)(F)F)C1 [Compound A195, 4-[(5S)-5-(3,5-dichlorophenyl)-5-(trifluoromethyl)-4H-1,2-oxazol-3-yl]-2-methyl-N-[(4S)-2-(2,2,2-trifluoroethylsulfonyl)-1,2-oxazolidin-4-yl]benzamide]
≥ 80%: percent effect (mortality or growth inhibition) at 200 ppm [1] | percent effect (mortality or growth inhibition) at 200 ppm [2] | percent effect (mortality or growth inhibition) at 200 ppm [3] | mortality at 200 ppm [4] | mortality at 200 ppm [5] | mortality at 200 ppm [6]

Cc1cc(C2=NO[C@](c3cc(Cl)cc(Cl)c3)(C(F)(F)F)C2)ccc1C(=O)N[C@H]1CON(S(=O)(=O)CC#N)C1 [Compound A165, N-[(4R)-2-(cyanomethylsulfonyl)-1,2-oxazolidin-4-yl]-4-[(5R)-5-(3,5-dichlorophenyl)-5-(trifluoromethyl)-4H-1,2-oxazol-3-yl]-2-methylbenzamide]
≥ 80%: percent effect (mortality or growth inhibition) at 200 ppm [1] | percent effect (mortality or growth inhibition) at 200 ppm [2] | percent effect (mortality or growth inhibition) at 200 ppm [3] | mortality at 200 ppm [4] | mortality at 200 ppm [5] | mortality at 200 ppm [6]

Cc1cc(C2=NO[C@@](c3cc(Cl)c(F)c(Cl)c3)(C(F)(F)F)C2)ccc1C(=O)NC1CON(S(=O)(=O)c2ccc(Cl)cc2)C1 (stereo partly drawn) [Compound A2, N-[2-(4-chlorophenyl)sulfonylisoxazolidin-4-yl]-4-[(5S)-5-(3,5-dichloro-4-fluoro-phenyl)-5-(trifluoromethyl)-4H-isoxazol-3-yl]-2-methyl-benzamide]
≥ 80%: percent effect (mortality or growth inhibition) at 200 ppm [1] | percent effect (mortality or growth inhibition) at 200 ppm [2] | percent effect (mortality or growth inhibition) at 200 ppm [3] | mortality at 200 ppm [4] | mortality at 200 ppm [5] | mortality at 200 ppm [6]

— patent US10588317B2, “Isoxazoline-substituted benzamides and analogues as insecticides” (priority 2015, dated 2020)
